Data: PubChem BioAssay (NCI)
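Briefly, cells in 96-well plates were exposed to five compound concentrations for 48 h, and endpoints were estimated by linear interpolation. TGI: total growth inhibition.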

Tests used:
Assay in all cases: NCI tumour cell line growth inhibition, 48 h
DLD-1 colon = tested on: DLD-1 colon
DMS 114 small cell lung = tested on: DMS 114 small cell lung
DMS 273 small cell lung = tested on: DMS 273 small cell lung
HOP-18 NSCLC = tested on: HOP-18 NSCLC
XF 498 CNS = tested on: XF 498 CNS
KM20L2 colon = tested on: KM20L2 colon
RXF-631 renal = tested on: RXF-631 renal
P388 leukemia = tested on: P388 leukemia
P388/ADR leukemia = tested on: P388/ADR leukemia
SN12K1 renal = tested on: SN12K1 renal

Compound | TGI (DLD-1 colon) [µM] | TGI (DMS 114 small cell lung) [µM] | TGI (DMS 273 small cell lung) [µM] | TGI (HOP-18 NSCLC) [µM] | TGI (XF 498 CNS) [µM] | TGI (KM20L2 colon) [µM] | TGI (RXF-631 renal) [µM] | TGI (P388 leukemia) [µM] | TGI (P388/ADR leukemia) [µM] | TGI (SN12K1 renal) [µM]
COc1cc(C(C)c2cc3c(cc2OCCO)OCO3)cc(OC)c1OC (configuration not stated) | > 100 | 3.77 | > 100 | > 100 | 5.33 | – | – | – | – | –
COc1cc2cc[n+]3c(C)c4cc(OC)c(OC)cc4c([O-])c3c2cc1OC | > 100 | 62.1 | > 100 | – | 82.1 | > 100 | – | – | – | –
Cc1nc2c(sc(=S)n2-c2ccccc2)c(=O)[nH]1 | > 100 | – | – | > 100 | – | – | – | – | – | –
COc1ccc(C(=O)Cc2ccc(Br)cc2)cc1OC | > 100 | > 100 | > 100 | > 100 | 71 | > 100 | > 100 | – | – | –
COc1ccccc1Cc1nc(-c2ccccc2)nn(C2OC(COC(C)=O)C(OC(C)=O)C(OC(C)=O)C2OC(C)=O)c1=S (configuration not stated) | > 100 | > 100 | > 79.6 | 97.7 | 6.49 | > 100 | – | > 100 | > 100 | > 53.4
CC1(c2ccc[n+](Cc3ccccc3)c2)OCCO1 | > 100 | – | > 100 | > 100 | – | > 100 | – | – | – | –
O=C1C(=O)c2ccccc2C(O)=C1CCCc1ccc(Oc2ccccc2)cc1 | > 100 | 23.5 | 51.8 | – | 66.1 | 73.2 | – | – | – | –
